Patent publication US9603860B2, “Pharmaceutical compositions comprising active drugs, contraceptive kits comprising active drugs, and methods of administering the same” (LABORATORIOS LEON FARMA SA, priority 2010, dated 2017)

Key:
[1] = Particle size distribution by laser diffraction in wet dispersion; type: physicochemical; conditions: dispersant water
Procedure: The analysis of the particle size distribution of each batch was performed by laser diffraction method in wet dispersion (Helos sensor, Sympatec with the wet disperser Quixel). The dispersant used was water. The full particle dispersion was ensured by ultrasonication.

[2] = Specific area by BET method; type: physicochemical
Procedure: The specific area was determined by the BET method.

ovulation = assay: Contraceptive efficiency trial, 24/4 regimen (ovulation inhibition, Example 5, Part 3); type: in vivo, human
Procedure: The study was an open-label monocentric trial. […] Excluded were subjects with a (suspected) pregnancy, active or past thromboembolic disorder, present or past severe hepatic disease, carcinoma of the endometrium or other known or suspected estrogen-dependent neoplasia, undiagnosed vaginal bleeding, use of liver enzyme-inducing drugs and other drugs.
The subjects received daily treatment with tablets containing about 4 mg DRSP with a 24/4 regimen during two treatment cycles. The subjects started treatment on the 1st day of the cycle (i.e., the first day of onset of vaginal bleeding) following the screening visit. […]
Blood sampling for hormonal determination (progesterone, 17-beta-estradiol, FSH and LH) was performed every 3 days from day 1 to day 84 and assessments of weight, blood pressure and heart rate were performed at each visit. Serum progesterone, 17-beta-estradiol, FSH and LH concentrations were measured with validated commercial in vitro diagnostic kits (V1DAS, ELFA Biomerieux). […]
The occurrence of ovulation during treatment was determined on the basis of serum progesterone concentration, using the criteria of Landgren et al. Thus, an ovulation was judged to have occurred in case of progesterone concentrations >5.04 ng/ml-sustained for at least 2 consecutive progesterone samples.

| d10 [1] | d50 [1] | d90 [1] | d99 [1] | Specific area [2] | Structure (SMILES) | ovulation during the 2 treatment cycles (ovulation; 24/4 regimen, ovulation = progesterone >5.04 ng/ml in 2 consecutive samples) | women with progesterone above 5.04 ng/mL (return of ovulation) in 28-day follow-up cycle (ovulation; upon cessation of treatment) |
| --- | --- | --- | --- | --- | --- | --- | --- |
|  |  |  |  | 0.66 m^2/g | C[C@]12CCC(=O)C=C1[C@@H]1C[C@@H]1[C@H]1[C@@H]3[C@@H]4C[C@@H]4[C@@]4(CCC(=O)O4)[C@@]3(C)CC[C@@H]12 [PR100311, Drospirenone] |  |  |
| 5.9 μm | 22.4 μm | 37.4 μm | 56.1 μm | 0.26 m^2/g | C[C@]12CCC(=O)C=C1[C@@H]1C[C@@H]1[C@H]1[C@@H]3[C@@H]4C[C@@H]4[C@@]4(CCC(=O)O4)[C@@]3(C)CC[C@@H]12 [PR100003, Drospirenone] |  |  |

Second part, the compound before the results:

| Structure (SMILES) | d10 [1] | d50 [1] | d90 [1] | d99 [1] | Specific area [2] | ovulation during the 2 treatment cycles (ovulation; 24/4 regimen, ovulation = progesterone >5.04 ng/ml in 2 consecutive samples) | women with progesterone above 5.04 ng/mL (return of ovulation) in 28-day follow-up cycle (ovulation; upon cessation of treatment) |
| --- | --- | --- | --- | --- | --- | --- | --- |
| C[C@]12CCC(=O)C=C1[C@@H]1C[C@@H]1[C@H]1[C@@H]3[C@@H]4C[C@@H]4[C@@]4(CCC(=O)O4)[C@@]3(C)CC[C@@H]12 [compound 080257, Drospirenone] | 5.3 μm | 12.6 μm | 23.4 μm | 35.3 μm | 0.77 m^2/g |  |  |
| C[C@]12CCC(=O)C=C1[C@@H]1C[C@@H]1[C@H]1[C@@H]3[C@@H]4C[C@@H]4[C@@]4(CCC(=O)O4)[C@@]3(C)CC[C@@H]12 [compound 080053, Drospirenone] | 7.2 μm | 19.8 μm | 34.2 μm | 44.8 μm | 0.63 m^2/g |  |  |
| C[C@]12CCC(=O)C=C1[C@@H]1C[C@@H]1[C@H]1[C@@H]3[C@@H]4C[C@@H]4[C@@]4(CCC(=O)O4)[C@@]3(C)CC[C@@H]12 [compound 080169, Drospirenone] | 2.9 μm | 24.5 μm | 37.1 μm | 48.9 μm | 0.45 m^2/g |  |  |
| C[C@]12CCC(=O)C=C1[C@@H]1C[C@@H]1[C@H]1[C@@H]3[C@@H]4C[C@@H]4[C@@]4(CCC(=O)O4)[C@@]3(C)CC[C@@H]12 [compound 080204, Drospirenone] | 4.4 μm | 13.1 μm | 24.8 μm | 34.5 μm | 0.83 m^2/g |  |  |
| C[C@]12CCC(=O)C=C1[C@@H]1C[C@@H]1[C@H]1[C@@H]3[C@@H]4C[C@@H]4[C@@]4(CCC(=O)O4)[C@@]3(C)CC[C@@H]12 [DRSP, 6b,7b:15b,16b-Dimethylen-3-oxo-17a-pregn-4-ene-21,17-carbolactone] |  |  |  |  |  | no ovulation occurred | 17 out of 20 |
